Source: the NIST ThermoML archive (doi:10.1016/j.jct.2011.02.008)

Test: xn = mol fraction of the nth substance listed
Conditions: Liquid, Vibrating tube method

COC(=O)c1ccccc1 [methyl benzoate] + CCCCCCO
mass density [kg/m3]
Conditions | x1 = 0.1004 | x1 = 0.2007 | x1 = 0.3007 | x1 = 0.4013 | x1 = 0.5005 | x1 = 0.6009 | x1 = 0.7 | x1 = 0.8008 | x1 = 0.9009
338.15 K, 45000 kPa | – | – | – | – | 945.5 | 971.4 | 997.1 | 1023.3 | 1049.5
338.15 K, 50000 kPa | 845.7 | 871.2 | 897 | 922.9 | 948.5 | 974.4 | 1000.1 | 1026.4 | 1052.5
338.15 K, 55000 kPa | 848.6 | 874.1 | 899.9 | 925.8 | 951.4 | 977.4 | 1003.1 | 1029.3 | 1055.5
338.15 K, 60000 kPa | 851.4 | 876.8 | 902.8 | 928.7 | 954.3 | 980.1 | 1005.8 | 1032 | 1058.2
348.15 K, 100 kPa | 802.6 | 827.8 | 853.4 | 879.1 | 904.6 | 930.4 | 956.1 | 982.5 | 1008.8
348.15 K, 1000 kPa | 803.3 | 828.6 | 854.2 | 879.9 | 905.4 | 931.3 | 956.9 | 983.2 | 1009.5
348.15 K, 5000 kPa | 807 | 832.2 | 857.7 | 883.4 | 908.8 | 934.7 | 960.3 | 986.6 | 1012.9
348.15 K, 10000 kPa | 811.2 | 836.4 | 861.9 | 887.6 | 913 | 938.8 | 964.4 | 990.7 | 1016.9
348.15 K, 15000 kPa | 815.2 | 840.4 | 865.9 | 891.4 | 917 | 942.8 | 968.4 | 994.6 | 1020.7
348.15 K, 20000 kPa | 819 | 844.2 | 869.7 | 895.4 | 920.8 | 946.6 | 972.1 | 998.3 | 1024.4
348.15 K, 25000 kPa | 822.7 | 847.9 | 873.4 | 899.1 | 924.5 | 950.2 | 975.8 | 1001.9 | 1028
348.15 K, 30000 kPa | 826.2 | 851.4 | 877 | 902.6 | 928 | 953.8 | 979.3 | 1005.4 | 1031.5
348.15 K, 35000 kPa | 829.6 | 854.8 | 880.4 | 906 | 931.4 | 957.2 | 982.7 | 1008.9 | 1034.9
348.15 K, 40000 kPa | 832.9 | 858.1 | 883.7 | 909.3 | 934.7 | 960.5 | 986 | 1012.2 | 1038.2
348.15 K, 45000 kPa | 836.1 | 861.3 | 886.9 | 912.5 | 938 | 963.7 | 989.3 | 1015.4 | 1041.4
348.15 K, 50000 kPa | 839.1 | 864.4 | 890 | 915.7 | 941.1 | 966.9 | 992.4 | 1018.5 | 1044.5
348.15 K, 55000 kPa | 842.1 | 867.4 | 893 | 918.7 | 944.2 | 969.9 | 995.5 | 1021.6 | 1047.6
348.15 K, 60000 kPa | 844.9 | 870.2 | 895.8 | 921.5 | 947 | 972.8 | 998.2 | 1024.6 | 1050.4
358.15 K, 100 kPa | 794.1 | 819.1 | 844.4 | 869.9 | 895.3 | 921 | 946.6 | 972.8 | 999
358.15 K, 1000 kPa | 795 | 820 | 845.3 | 870.8 | 896.1 | 921.7 | 947.4 | 973.6 | 999.8
358.15 K, 5000 kPa | 798.7 | 823.7 | 849 | 874.5 | 899.8 | 925.5 | 951 | 977.2 | 1003.3
358.15 K, 10000 kPa | 803.1 | 828.2 | 853.5 | 878.9 | 904.2 | 929.9 | 955.3 | 981.4 | 1007.5
358.15 K, 15000 kPa | 807.4 | 832.4 | 857.7 | 883.1 | 908.4 | 934 | 959.5 | 985.5 | 1011.6
358.15 K, 20000 kPa | 811.4 | 836.4 | 861.7 | 887.1 | 912.3 | 938 | 963.4 | 989.5 | 1015.5
358.15 K, 25000 kPa | 815.3 | 840.3 | 865.6 | 891 | 916.2 | 941.8 | 967.3 | 993.3 | 1019.3
358.15 K, 30000 kPa | 818.9 | 844 | 869.3 | 894.7 | 919.9 | 945.5 | 970.9 | 996.9 | 1022.9
358.15 K, 35000 kPa | 822.4 | 847.6 | 872.8 | 898.3 | 923.5 | 949.1 | 974.5 | 1000.5 | 1026.5
358.15 K, 40000 kPa | 825.9 | 851 | 876.3 | 901.7 | 926.9 | 952.6 | 978 | 1003.9 | 1029.9
358.15 K, 45000 kPa | 829.2 | 854.3 | 879.6 | 905.1 | 930.3 | 956 | 981.3 | 1007.3 | 1033.2
358.15 K, 50000 kPa | 832.4 | 857.5 | 882.9 | 908.3 | 933.6 | 959.3 | 984.6 | 1010.6 | 1036.5
358.15 K, 55000 kPa | 835.5 | 860.7 | 886 | 911.5 | 936.7 | 962.4 | 987.8 | 1013.7 | 1039.7
358.15 K, 60000 kPa | 838.5 | 863.5 | 889.1 | 914.4 | 939.8 | 965.3 | 990.7 | 1016.9 | 1042.6
